Data published in ChEMBL document CHEMBL3885881, “DrugMatrix”.

Organism: Rattus norvegicus
Assay: DrugMatrix - Regimen: Daily Repeat
Assay type: toxicity, organism-based, Sprague-Dawley
Design: regimen Daily Repeat, gender Male, age 6-8 weeks
Details: in vivo, po, […], route oral GAVAGE, dose 0.28 mg/Kg, dose level Low; for ABSOLUTE BASOPHIL / ABSOLUTE EOSINOPHIL / ABSOLUTE LYMPHOCYTE / ABSOLUTE MONOCYTE / ABSOLUTE SEGMENTED NEUTROPHIL / BASOPHIL / EOSINOPHIL / ERYTHROCYTE COUNT / HEMATOCRIT / HEMOGLOBIN / LEUKOCYTE COUNT / LYMPHOCYTE / MEAN CORPUSCULAR HEMOGLOBIN / MEAN CORPUSCULAR HEMOGLOBIN CONCENTRATION / MEAN CORPUSCULAR VOLUME / MONOCYTE / NEUTROPHIL / NUCLEATED RED BLOOD CELLS / PLATELET COUNT: tissue Blood; for ALANINE AMINOTRANSFERASE / ALBUMIN / ALKALINE PHOSPHATASE / ASPARTATE AMINOTRANSFERASE / BLOOD UREA NITROGEN / CARBON DIOXIDE / CHLORIDE / CHOLESTEROL / CREATINE PHOSPHOKINASE / CREATININE / GLUCOSE / LACTATE DEHYDROGENASE / LIPASE / PHOSPHORUS / POTASSIUM / SODIUM / TOTAL BILIRUBIN / TOTAL PROTEIN / URIC ACID: tissue Plasma

CC(C(=O)O)c1ccc(CC2CCCC2=O)cc1 (stereo unspecified) [LOXOPROFEN] was tested, and the “ABSOLUTE BASOPHIL” value (72 h, time 3 day) was 0 CELLS/uL, the “ABSOLUTE EOSINOPHIL” value (72 h, time 3 day) was 0 CELLS/uL and the “ABSOLUTE LYMPHOCYTE” value (72 h, time 3 day) was 8216 CELLS/uL. For the same compound, the “ABSOLUTE MONOCYTE” value (72 h, time 3 day) was 105.67 CELLS/uL, the “ABSOLUTE SEGMENTED NEUTROPHIL” value (72 h, time 3 day) was 1111.67 CELLS/uL and the BASOPHIL (72 h, time 3 day) was 0%. For the same compound, the EOSINOPHIL (72 h, time 3 day) was 0%, the “ERYTHROCYTE COUNT” value (72 h, time 3 day) was 5.18 x10E6/uL and the HEMATOCRIT (72 h, time 3 day) was 32.3%. The HEMOGLOBIN (72 h, time 3 day) was 13.07 G/DL, the “LEUKOCYTE COUNT” value (72 h, time 3 day) was 9.43 x10E3/uL and the LYMPHOCYTE (72 h, time 3 day) was 87.33%. For the same compound, the “MEAN CORPUSCULAR HEMOGLOBIN” value (72 h, time 3 day) was 25.23 pg, the “MEAN CORPUSCULAR HEMOGLOBIN CONCENTRATION” value (72 h, time 3 day) was 40.47 G/DL and the “MEAN CORPUSCULAR VOLUME” value (72 h, time 3 day) was 62.37 fL. The MONOCYTE (72 h, time 3 day) was 1%, the NEUTROPHIL (72 h, time 3 day) was 11.67% and the “NUCLEATED RED BLOOD CELLS” value (72 h, time 3 day) was 0 /100WBC. For the same compound, the “PLATELET COUNT” value (72 h, time 3 day) was 1232.67 x10E3/uL, the “ALANINE AMINOTRANSFERASE” value (72 h, time 3 day) was 78.33 u/L and the ALBUMIN (72 h, time 3 day) was 4 G/DL. For the same compound, the “ALKALINE PHOSPHATASE” value (72 h, time 3 day) was 425 u/L, the “ASPARTATE AMINOTRANSFERASE” value (72 h, time 3 day) was 95.33 u/L and the “BLOOD UREA NITROGEN” value (72 h, time 3 day) was 17 mg/dL. For the same compound, the “CARBON DIOXIDE” value (72 h, time 3 day) was 30 mmol/L, the CHLORIDE (72 h, time 3 day) was 101.33 MEQ/L and the CHOLESTEROL (72 h, time 3 day) was 69 mg/dL. For the same compound, the “CREATINE PHOSPHOKINASE” value (72 h, time 3 day) was 495.67 u/L, the CREATININE (72 h, time 3 day) was 0.2 mg/dL and the GLUCOSE (72 h, time 3 day) was 186.33 mg/dL. For the same compound, the “LACTATE DEHYDROGENASE” value (72 h, time 3 day) was 214.33 u/L, the LIPASE (72 h, time 3 day) was 8.67 u/L and the PHOSPHORUS (72 h, time 3 day) was 12.6 mg/dL. The POTASSIUM (72 h, time 3 day) was 6.25 MEQ/L, the SODIUM (72 h, time 3 day) was 143.63 MEQ/L and the “TOTAL BILIRUBIN” value (72 h, time 3 day) was 0.17 mg/dL. The “TOTAL PROTEIN” value (72 h, time 3 day) was 5.5 G/DL, the “URIC ACID” value (72 h, time 3 day) was 1.43 mg/dL and the “ABSOLUTE BASOPHIL” value (120 h, time 5 day) was 0 CELLS/uL. For the same compound, the “ABSOLUTE EOSINOPHIL” value (120 h, time 5 day) was 43.33 CELLS/uL, the “ABSOLUTE LYMPHOCYTE” value (120 h, time 5 day) was 10902.67 CELLS/uL and the “ABSOLUTE MONOCYTE” value (120 h, time 5 day) was 142 CELLS/uL. The “ABSOLUTE SEGMENTED NEUTROPHIL” value (120 h, time 5 day) was 678.67 CELLS/uL, the BASOPHIL (120 h, time 5 day) was 0% and the EOSINOPHIL (120 h, time 5 day) was 0.33%. For the same compound, the “ERYTHROCYTE COUNT” value (120 h, time 5 day) was 5.61 x10E6/uL, the HEMATOCRIT (120 h, time 5 day) was 35.07% and the HEMOGLOBIN (120 h, time 5 day) was 14.17 G/DL. For the same compound, the “LEUKOCYTE COUNT” value (120 h, time 5 day) was 11.77 x10E3/uL, the LYMPHOCYTE (120 h, time 5 day) was 93% and the “MEAN CORPUSCULAR HEMOGLOBIN” value (120 h, time 5 day) was 25.23 pg. The “MEAN CORPUSCULAR HEMOGLOBIN CONCENTRATION” value (120 h, time 5 day) was 40.4 G/DL, the “MEAN CORPUSCULAR VOLUME” value (120 h, time 5 day) was 62.43 fL and the MONOCYTE (120 h, time 5 day) was 1.33%. The NEUTROPHIL (120 h, time 5 day) was 5.33%, the “NUCLEATED RED BLOOD CELLS” value (120 h, time 5 day) was 0 /100WBC and the “PLATELET COUNT” value (120 h, time 5 day) was 984.33 x10E3/uL. For the same compound, the “ALANINE AMINOTRANSFERASE” value (120 h, time 5 day) was 57 u/L, the ALBUMIN (120 h, time 5 day) was 4.3 G/DL and the “ALKALINE PHOSPHATASE” value (120 h, time 5 day) was 291 u/L. For the same compound, the “ASPARTATE AMINOTRANSFERASE” value (120 h, time 5 day) was 85.33 u/L, the “BLOOD UREA NITROGEN” value (120 h, time 5 day) was 18 mg/dL and the “CARBON DIOXIDE” value (120 h, time 5 day) was 26.67 mmol/L. The CHLORIDE (120 h, time 5 day) was 103.67 MEQ/L, the CHOLESTEROL (120 h, time 5 day) was 68.67 mg/dL and the “CREATINE PHOSPHOKINASE” value (120 h, time 5 day) was 238 u/L. For the same compound, the CREATININE (120 h, time 5 day) was 0.23 mg/dL, the GLUCOSE (120 h, time 5 day) was 187.33 mg/dL and the “LACTATE DEHYDROGENASE” value (120 h, time 5 day) was 153.33 u/L. The LIPASE (120 h, time 5 day) was 11 u/L, the PHOSPHORUS (120 h, time 5 day) was 11.87 mg/dL and the POTASSIUM (120 h, time 5 day) was 5.74 MEQ/L. For the same compound, the SODIUM (120 h, time 5 day) was 144.4 MEQ/L, the “TOTAL BILIRUBIN” value (120 h, time 5 day) was 0.2 mg/dL and the “TOTAL PROTEIN” value (120 h, time 5 day) was 5.83 G/DL. For the same compound, the “URIC ACID” value (120 h, time 5 day) was 1.6 mg/dL.
